# Article PMC4690121, “Interaction of Citrinin with Human Serum Albumin” (Toxins, 2015)
# Where two headings read alike, the source gives them in different places.
# Experiments:
# [1] = target: T1, human serum albumin (HSA) (Homo sapiens, UniProt P02768); conditions: cited from earlier work
# [2] = target: T1, human serum albumin (HSA)
# Method: Before ultrafiltration samples contained 1 μM CIT with or without HSA (1, 2.5 or 5 μM), while displacement of CIT by WAR (5 and 10 μM) or OTA (2.5 and 5 μM) was investigated in the presence of 1 μM CIT and 5 μM HSA. During ultrafiltration experiments Amicon Ultra-4 centrifugal filter units (with 10 kDa molecular weight cut-off value; from Merck Millipore, Darmstadt, Germany) were applied. In order to remove glycerol from the filters, filter units were washed with 3 mL water and 3 mL PBS. Thereafter, 2.5 mL of the samples were transferred into the filter and Amicon tubes were centrifuged at 7500 g for 10 min at 25 °C (in Hettich Universal 32R centrifuge with fixed-angle rotor). Then 2 mL quantity of filtrate was transferred into 5-mL Eppendorf tube, after which 10 μL 6 M HCl solution was added to the sample in order to adjust the pH (to approximately 2). […] Final CIT concentrations were determined (applying calibration curve at concentration range 0.1–2.0 μM) by Hitachi F-4500 fluorescence spectrophotometer with the measurement of the fluorescence signal of CIT itself, using 330 nm and 500 nm as excitation and emission wavelengths, respectively.
# [3] = target: T1, human serum albumin (HSA); experiment: Steady-state fluorescence displacement of warfarin from HSA by CIT; type: binding; design: purchased Sigma-Aldrich; conditions: warfarin 1 μM, HSA 3.5 μM, CIT 0.25–5.0 μM
# rat serum albumin (RSA) = target: T2, rat serum albumin (RSA) (Rattus norvegicus, UniProt P02770); experiment: Fluorescence quenching of albumin by CIT, binding constant; conditions: PBS pH 7.4, 25 °C; read-out: logK (±SD) of CIT-RSA complex (converted)
# T2 construct: purchased Sigma-Aldrich
# T2 sequence (P02770 25-608): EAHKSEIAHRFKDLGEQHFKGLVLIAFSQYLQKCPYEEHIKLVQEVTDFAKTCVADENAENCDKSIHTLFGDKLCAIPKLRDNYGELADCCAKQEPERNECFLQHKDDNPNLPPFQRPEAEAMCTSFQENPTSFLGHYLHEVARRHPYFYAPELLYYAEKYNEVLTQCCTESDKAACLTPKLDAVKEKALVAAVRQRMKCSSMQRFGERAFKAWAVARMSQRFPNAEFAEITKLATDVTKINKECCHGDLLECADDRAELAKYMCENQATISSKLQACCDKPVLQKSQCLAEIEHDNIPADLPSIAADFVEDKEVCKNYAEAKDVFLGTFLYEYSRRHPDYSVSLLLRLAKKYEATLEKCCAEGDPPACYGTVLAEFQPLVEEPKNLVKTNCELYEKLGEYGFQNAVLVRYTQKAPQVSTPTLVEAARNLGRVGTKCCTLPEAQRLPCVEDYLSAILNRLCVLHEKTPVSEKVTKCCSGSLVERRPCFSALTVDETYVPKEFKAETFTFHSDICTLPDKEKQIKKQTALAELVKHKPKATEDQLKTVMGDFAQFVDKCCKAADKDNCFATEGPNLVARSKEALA
# Method: (§1) A Fluorolog τ3 spectrofluorometric system (Jobin-Yvon/SPEX) and Hitachi F-4500 fluorescence spectrophotometer were used for steady-state fluorescence and fluorescence polarization measurements. All analyses were performed at +25 °C except thermodynamic studies.
# (§2) Binding constants (K) were determined using fluorescence quenching method, where increasing CIT concentrations (0–5 μM) were added to standard amount of albumin (2 μM). Fluorescence emission spectra were recorded in PBS buffer (pH 7.4; λexc = 280 nm). Similarly to our previous studies, K values of CIT-albumin complexes were quantified by non-linear fitting with Hyperquad2006 program package (Protonic Software) assuming 1:1 stoichiometry: (1) I=I0+IAC−I0/2[A]0([A]0+[C]0+1/K−([A]0+[C]0+1/K)^2−4[A]0[C]0) where I denotes the fluorescence emission intensity of albumin in presence of CIT; I0 denotes the fluorescence emission intensity of albumin in absence of CIT; IAC denotes the fluorescence emission intensity of pure albumin-CIT complex (which is calculated by the Hyperquad2006 software); K denotes the binding constant; while [A]0 and [C]0 denote the total concentrations of albumin and CIT, respectively.
# [4] = target: T3, bovine serum albumin (BSA) (Bos taurus, UniProt P02769); experiment: as above; conditions: PBS pH 7.4, 25 °C; read-out: logK (±SD) of CIT-BSA complex (converted)
# T3 construct: purchased Sigma-Aldrich
# T3 sequence (P02769 25-607): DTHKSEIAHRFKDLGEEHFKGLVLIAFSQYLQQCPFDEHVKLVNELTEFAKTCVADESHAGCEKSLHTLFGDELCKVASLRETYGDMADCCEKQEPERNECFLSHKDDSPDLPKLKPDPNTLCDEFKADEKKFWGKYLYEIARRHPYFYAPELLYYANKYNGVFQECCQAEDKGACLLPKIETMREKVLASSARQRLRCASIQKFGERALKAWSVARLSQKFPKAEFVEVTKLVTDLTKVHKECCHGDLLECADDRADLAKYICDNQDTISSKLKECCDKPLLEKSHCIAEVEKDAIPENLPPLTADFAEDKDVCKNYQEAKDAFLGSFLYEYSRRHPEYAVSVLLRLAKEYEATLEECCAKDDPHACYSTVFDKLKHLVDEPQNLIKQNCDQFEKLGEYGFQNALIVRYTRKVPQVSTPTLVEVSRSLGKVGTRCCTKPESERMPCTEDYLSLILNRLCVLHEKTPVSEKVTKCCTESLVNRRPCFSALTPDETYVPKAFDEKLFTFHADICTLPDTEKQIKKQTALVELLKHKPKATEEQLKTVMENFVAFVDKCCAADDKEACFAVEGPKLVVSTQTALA
# Method: as §1, §2
# [5] = target: T4, porcine serum albumin (PSA) (Sus scrofa, UniProt P08835); experiment: as above; conditions: PBS pH 7.4, 25 °C; read-out: logK (±SD) of CIT-PSA complex (converted)
# T4 construct: purchased Sigma-Aldrich
# T4 sequence (P08835 25-607): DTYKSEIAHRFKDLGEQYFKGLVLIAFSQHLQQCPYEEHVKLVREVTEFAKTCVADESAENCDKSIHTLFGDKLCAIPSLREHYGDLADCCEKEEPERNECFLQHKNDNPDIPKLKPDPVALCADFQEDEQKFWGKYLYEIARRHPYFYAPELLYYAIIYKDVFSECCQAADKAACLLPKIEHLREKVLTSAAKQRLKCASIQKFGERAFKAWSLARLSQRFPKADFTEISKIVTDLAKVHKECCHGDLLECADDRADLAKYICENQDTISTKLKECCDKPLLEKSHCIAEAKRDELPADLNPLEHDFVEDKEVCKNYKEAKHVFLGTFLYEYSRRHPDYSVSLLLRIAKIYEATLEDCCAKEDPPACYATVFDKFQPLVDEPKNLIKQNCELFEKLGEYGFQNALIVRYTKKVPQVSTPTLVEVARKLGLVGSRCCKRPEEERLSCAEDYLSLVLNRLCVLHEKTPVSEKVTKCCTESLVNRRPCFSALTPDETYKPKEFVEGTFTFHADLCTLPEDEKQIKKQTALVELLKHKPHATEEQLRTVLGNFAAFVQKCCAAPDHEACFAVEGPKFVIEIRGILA
# Method: as §1, §2
# [6] = target: T1, human serum albumin (HSA); experiment: Fluorescence polarization displacement of OTA from HSA; type: binding; design: purchased Sigma-Aldrich; conditions: OTA 1 μM, HSA 1.4 μM, competitor 1–30 μM
# [7] = target: T1, human serum albumin (HSA); experiment: Fluorescence quenching of albumin by CIT, binding constant and van't Hoff thermodynamics; design: purchased Sigma-Aldrich
# Method: as §1
# as §2, with “Fluorescence emission spectra were recorded in PBS buffer (pH 7.4; λexc = 280 nm).” left out
# To get deeper insight into the formation of CIT-HSA complex, quenching experiments were also performed at different temperatures (25, 30, 35, and 40 °C). Thermodynamic parameters were quantified applying the van’t Hoff equation: (2) lnK=−ΔG/RT=−ΔH/RT+ΔS/R where ΔG is the Gibbs free energy change, ΔS is the entropy change, while ΔH is the enthalpy change associated with the complex formation.
# MDCK cells = experiment: MDCK cell viability (calcein acetoxymethyl ester); type: cell-based; conditions: 24 h
# Method: MDCK (immortalized, epithelial-kidney, ATCC: CCL 34) cells were cultured in DMEM containing FBS (10%), penicillin (100 U/mL) and streptomycin (100 μg/mL), in 25 cm^2 sterile plastic flasks (VWR) and in 24-well sterile plastic plates (VWR). In order to test the effect of CIT on cell viability in absence and presence of albumin, cell media with and without 10% FBS or 40 g/L HSA were also prepared. After 24-h treatment of MDCK cells (in 24-well plates) with CIT (0–100 μM) in absence and presence of FBS (10%) or HSA (40 g/L), cells were washed three times with 500 μL PBS. Then PBS was replaced with 500 µL Hanks + glucose buffer containing 1.6 µM calcein acetoxymethyl ester and cells were incubated for 40 min at 37 °C in the dark. Thereafter, wells were washed again with 500 μL ice-cold PBS and the emptied wells were filled with 500 μL of 5% perchloric acid (PCA) after which cells were incubated for 15 min at room temperature. 20 μL PCA extract was added to 180 μL of 1 M NaOH using black 96-well optical plates (VWR) for fluorescence measurement of the formed calcein (λexc = 490 nm, λem = 520 nm). Fluorescence intensities were measured with a microplate reader (Perkin Elmer EnSpire Multimode reader).
# [8] = van't Hoff, 25-40 °C quenching data
# T1 sequence (P02768 25-609): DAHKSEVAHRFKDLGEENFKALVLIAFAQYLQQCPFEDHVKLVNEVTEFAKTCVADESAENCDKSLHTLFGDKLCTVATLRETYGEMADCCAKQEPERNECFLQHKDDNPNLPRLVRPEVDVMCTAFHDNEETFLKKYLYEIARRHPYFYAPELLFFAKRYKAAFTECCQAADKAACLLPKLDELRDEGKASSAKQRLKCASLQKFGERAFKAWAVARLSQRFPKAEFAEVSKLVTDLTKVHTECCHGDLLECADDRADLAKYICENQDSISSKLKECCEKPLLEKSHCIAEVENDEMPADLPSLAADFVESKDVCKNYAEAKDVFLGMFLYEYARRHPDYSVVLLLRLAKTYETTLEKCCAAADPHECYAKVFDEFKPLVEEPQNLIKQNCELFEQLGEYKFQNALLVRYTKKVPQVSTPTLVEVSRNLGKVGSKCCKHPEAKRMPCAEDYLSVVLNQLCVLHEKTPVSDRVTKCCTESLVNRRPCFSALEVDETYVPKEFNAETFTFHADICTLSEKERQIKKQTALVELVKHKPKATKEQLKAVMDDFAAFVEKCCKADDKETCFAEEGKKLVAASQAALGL
structure (smiles),measurement,setting,value
"C[C@@H]1Cc2c(Cl)cc(C(=O)N[C@@H](Cc3ccccc3)C(=O)O)c(O)c2C(=O)O1 [OTA, ochratoxin A]",logK of OTA-HSA complex,[1]; 25 °C,7.4–7.6
same,complex stability with HSA compared to BSA,[1]; HSA vs BSA,15 fold
same,complex stability with HSA compared to RSA,[1]; HSA vs RSA,30 fold
same,displacement of CIT from HSA,"[2]; 1 μM CIT + 5 μM HSA, 5 μM OTA",almost complete displacement
same,change of CIT concentration in the filtrate caused by the competitor,"[2]; 1 μM CIT + 5 μM HSA, warfarin or ibuprofen 5 or 10 μM, OTA 2.5 and 5 μM",significant elevation
"CC1=C2C(=CO[C@H](C)[C@H]2C)C(O)=C(C(=O)O)C1=O [CIT, Citrinin]",fluorescence intensity of HSA-bound warfarin (displacement of warfarin),[3],significant decrease
same,Kd,rat serum albumin (RSA),3.16 µM
same,Kd,[4],8.91 µM
same,Kd,[5],11 µM
same,fluorescence polarization of OTA (displacement of OTA),[6],decrease of fluorescence polarization of OTA in a concentration dependent fashion
same,Kd,"[7]; PBS pH 6.0, 25 °C, read-out: logK of CIT-HSA complex (converted)",5.62 µM
same,Kd,"[7]; PBS pH 7.0, 25 °C, read-out: logK of CIT-HSA complex (converted)",5.25 µM
same,Kd,"[7]; PBS pH 7.4, 25 °C, read-out: logK (±SD) of CIT-HSA complex (converted)",4.79 µM
same,Kd,"[7]; PBS pH 7.4, 30 °C, read-out: logK (±SD) of CIT-HSA complex (converted)",5.5 µM
same,Kd,"[7]; PBS pH 7.4, 35 °C, read-out: logK (±SD) of CIT-HSA complex (converted)",6.46 µM
same,Kd,"[7]; PBS pH 7.4, 40 °C, read-out: logK (±SD) of CIT-HSA complex (converted)",7.76 µM
same,Kd,"[7]; PBS pH 7.8, 25 °C, read-out: logK of CIT-HSA complex (converted)",7.59 µM
same,∆H of CIT-HSA complex formation,[7]; [8],-5.772 kcal/mol
same,∆S of CIT-HSA complex formation,[7]; [8],+20.90 J·mol^−1·K^−1
same,CIT in the filtrate in presence of HSA,"[2]; 1 μM CIT, HSA 1, 2.5 and 5 μM, 10 kDa cut-off",significant decrease
same,CIT-induced viability loss in presence of FBS,MDCK cells; 100 μM CIT + 10% FBS,considerably alleviated
same,CIT-induced viability loss in presence of HSA,MDCK cells; 100 μM CIT + 40 g/L HSA,considerably alleviated
same,decrease of cell viability,"MDCK cells; 100 μM CIT, absence of FBS",approximately 50%
